Test results published in PubChem BioAssay AID588672 (Sanford-Burnham Center for Chemical Genomics, 2011).
Activity calls are given as the source filed them.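 The calls were made as follows: active = IC50 at or below 20 µM; inactive = the rest.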

Target: Glucose-6-phosphate 1-dehydrogenase (Homo sapiens) (UniProt P11413)
Test: human G6PD enzyme inhibitors, SAR follow-up, selectivity assay for P. falciparum G6PD inhibitor project, biochemical, fluorescence, dose response, set 2 (AID 588672)
Conditions: recombinant human G6PD, NADPH-diaphorase-resazurin fluorescence

Sequence of Glucose-6-phosphate 1-dehydrogenase (Homo sapiens) (P11413 whole entry, looked up): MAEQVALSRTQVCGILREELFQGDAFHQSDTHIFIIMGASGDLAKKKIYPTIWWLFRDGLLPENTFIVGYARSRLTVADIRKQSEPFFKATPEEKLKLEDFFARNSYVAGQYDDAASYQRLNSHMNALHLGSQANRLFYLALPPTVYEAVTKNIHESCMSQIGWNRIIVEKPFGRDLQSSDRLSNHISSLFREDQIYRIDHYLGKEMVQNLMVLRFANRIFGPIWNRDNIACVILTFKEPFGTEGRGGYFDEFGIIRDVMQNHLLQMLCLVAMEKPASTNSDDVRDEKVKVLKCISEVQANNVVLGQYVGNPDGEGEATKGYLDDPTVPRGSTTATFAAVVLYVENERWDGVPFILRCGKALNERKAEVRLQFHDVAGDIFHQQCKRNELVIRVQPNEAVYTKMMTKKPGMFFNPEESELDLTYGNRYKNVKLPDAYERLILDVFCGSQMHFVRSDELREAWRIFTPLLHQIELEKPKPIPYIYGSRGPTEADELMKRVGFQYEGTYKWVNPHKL

IC50, inactive:
CN(C)CCNC(=O)c1ccc2c(c1)NC(=O)CO2 > 80 µM
CCN1CCCC1CNC(=O)c1ccc2c(c1)NC(=O)/C(=C/c1ccccc1OC)S2 (stereo not given) > 80 µM
O=C1Nc2cc(C(=O)NCCN3CCOCC3)ccc2S/C1=C\c1ccccc1F > 80 µM
CCN1CCCC1CNC(=O)c1ccc2c(c1)NC(=O)CO2 (stereo not given) > 80 µM
O=C(NCCN1CCCC1)c1ccc2c(c1)NC(=O)c1ccccc1O2 > 80 µM
CCN1CCC[C@H]1CNC(=O)c1ccc2c(c1)NC(=O)/C(=C/c1ccccc1F)S2 > 80 µM
CCN(CC)CCNC(=O)c1ccc2c(c1)NC(=O)CO2 > 80 µM
O=C1Nc2cc(C(=O)NCCN3CCCCC3)ccc2S/C1=C\c1ccccc1F > 80 µM
CCN1CCCC1CNC(=O)c1ccc2c(c1)NC(=O)/C(=C/c1cccc3ccccc13)S2 (stereo not given) > 80 µM
CCN1CCCC1CNC(=O)c1ccc2c(c1)NC(=O)c1ccccc1S2 (stereo not given) > 80 µM
O=C1COc2ccc(C(=O)NCCN3CCOCC3)cc2N1 > 80 µM
O=C(NCCN1CCCCC1)c1ccc2c(c1)NC(=O)c1ccccc1O2 > 80 µM
CCN1CCCC1CNC(=O)c1ccc2c(c1)NC(=O)/C(=C/c1ccccc1F)S2 (stereo not given) > 80 µM
CN1CCN(C(=O)c2ccc3c(c2)NC(=O)/C(=C/c2ccccc2Cl)S3)CC1 > 80 µM
O=C1COc2ccc(C(=O)NCCN3CCCCC3)cc2N1 > 80 µM
O=C1Nc2cc(C(=O)NCCN3CCCC3)ccc2S/C1=C\c1ccccc1F > 80 µM
O=C1Nc2cc(C(=O)NCc3ccccc3)ccc2S/C1=C\c1ccccc1F > 80 µM
CN(C)CCNC(=O)c1ccc2c(c1)NC(=O)c1ccccc1O2 > 80 µM
CCN1CCCC1CNC(=O)c1ccc2c(c1)NC(=O)/C(=C/c1ccccc1)S2 (stereo not given) > 80 µM
CCN(CC)CCNC(=O)c1ccc2c(c1)NC(=O)c1ccccc1O2 > 80 µM
O=C1COc2ccc(C(=O)NCCN3CCCC3)cc2N1 > 80 µM
CCN1CCC[C@@H]1CNC(=O)c1ccc2c(c1)NC(=O)/C(=C/c1ccccc1F)S2 > 80 µM
O=C(NCCN1CCOCC1)c1ccc2c(c1)NC(=O)c1ccccc1O2 > 80 µM
CN(C)CCNC(=O)c1ccc2c(c1)NC(=O)/C(=C/c1ccccc1F)S2 > 80 µM
O=C(NCCN1CCCC1)c1ccc2c(c1)NC(=O)c1ccccc1S2 > 80 µM
CCN(CC)CCNC(=O)c1ccc2c(c1)NC(=O)c1ccccc1S2 > 80 µM
CCN1CCCC1CNC(=O)c1ccc2c(c1)NC(=O)c1ccccc1O2 (stereo not given) > 80 µM
CCN1CCCC1CNC(=O)c1ccc2c(c1)NC(=O)/C(=C/c1ccccc1C)S2 (stereo not given) > 80 µM
CCN1CCCC1CNC(=O)c1ccc2c(c1)NC(=O)CS2 (stereo not given) > 80 µM
CN1CCCC1CCNC(=O)c1ccc2c(c1)NC(=O)/C(=C/c1ccccc1F)S2 (stereo not given) > 80 µM
